For one assay, the species on record is Homo sapiens. In words: Concentration required to double the time of clot formation in reconstituted human plasma, using prothrombin time assay. The assay is classed as functional, organism-based.
Chain of Coagulation factor X (Homo sapiens) (P00742 41-179 limits assumed): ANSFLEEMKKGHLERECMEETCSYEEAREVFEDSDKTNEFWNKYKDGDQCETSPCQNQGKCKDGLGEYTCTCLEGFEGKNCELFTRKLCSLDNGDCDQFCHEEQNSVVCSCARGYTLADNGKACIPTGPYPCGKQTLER
Chain of Coagulation factor X (Homo sapiens) (P00742 235-488 limits assumed): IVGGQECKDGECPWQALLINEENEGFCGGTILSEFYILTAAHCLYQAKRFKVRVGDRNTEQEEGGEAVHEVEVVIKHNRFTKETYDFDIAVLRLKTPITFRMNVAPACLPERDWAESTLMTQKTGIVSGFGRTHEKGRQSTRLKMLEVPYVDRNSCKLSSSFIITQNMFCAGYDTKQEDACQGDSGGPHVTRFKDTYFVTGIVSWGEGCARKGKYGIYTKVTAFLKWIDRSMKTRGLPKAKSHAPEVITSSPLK
Compound `O=C(NC(C(=O)NCC1CCN(C2CCCC2)CC1)c1cccc2ccccc12)c1ccc2c(Cl)c[nH]c2c1` (stereo not drawn) yielded a Concentration of 3.8 µM.

Take `O=C(NC(C(=O)NCC1CCN(C2CCCC2)CC1)c1ccc2ccccc2c1)c1ccc2c(Cl)c[nH]c2c1` (stereo not drawn): the Concentration was found to be 4.1 µM.

As to `O=C(NC(C(=O)NCC1CCN(C2CCCC2)CC1)c1nccs1)c1ccc2c(Cl)c[nH]c2c1` (stereo not drawn), the Concentration was 0.79 µM.

The next assay concerns the target Coagulation factor X (Homo sapiens) (UniProt P00742). As to the kind of experiment: Binding ability to coagulation factor Xa, expressed as apparent association constant.
Turning to `COc1ccc(C(=O)NC(C(=O)NCC2CCN(C(C)C)CC2)c2ccccc2N)cc1` (stereo not drawn), the K ass was 750000 l M-1.

With `COc1ccc(C(=O)NC(C(=O)NCC2CCN(C(C)C)CC2)c2ccoc2)cc1` (stereo not drawn), the K ass is 200000 l M-1.

`COc1ccc(C(=O)NC(C(=O)NCC2CCN(C(C)C)CC2)c2ccccc2Br)cc1` (stereo not drawn): the K ass was 4.6e+06 l M-1.

In the case of `COc1ccc(C(=O)NC(C(=O)NCC2CCN(C(C)C)CC2)c2ccccc2O)cc1` (stereo not drawn), the K ass is 1.3e+06 l M-1.

As for `COc1ccc(C(=O)NC(C(=O)NCC2CCN(C(C)C)CC2)c2ccccc2[N+](=O)[O-])cc1` (stereo not drawn), the K ass was 4.2e+06 l M-1.

Regarding `COc1ccc(C(=O)NC(C(=O)NCC2CCN(C(C)C)CC2)c2cnc3ccccc3c2)cc1` (stereo not drawn), the K ass was 50000 l M-1.

With `COc1ccc(C(=O)NC(C(=O)NCC2CCN(C(C)C)CC2)c2ccccc2SC)cc1` (stereo not drawn), the K ass was 2.9e+06 l M-1.

Regarding `COc1ccc(C(=O)NC(C(=O)NCC2CCN(C(C)C)CC2)c2ccccc2)cc1` (stereo not drawn), the K ass was 710000 l M-1.

In the case of `O=C(NC(C(=O)NCC1CCN(C2CCCC2)CC1)c1cccc2ccccc12)c1ccc2c(Cl)c[nH]c2c1` (stereo not drawn), the K ass was 2.5e+08 l M-1.

Turning to `COc1ccc(C(=O)NC(C(=O)NCC2CCN(C(C)C)CC2)c2ccccc2F)cc1` (stereo not drawn), the K ass is 2e+06 l M-1.

In the case of `O=C(NC(C(=O)NCC1CCN(C2CCCC2)CC1)c1ccc2ccccc2c1)c1ccc2c(Cl)c[nH]c2c1` (stereo not drawn), the K ass is 7.9e+07 l M-1.

As for `COc1ccc(C(=O)NC(C(=O)NCC2CCN(C(C)C)CC2)c2ccccc2Cl)cc1` (stereo not drawn), the K ass is 5.1e+06 l M-1.

As for `O=C(NC(C(=O)NCC1CCN(C2CCCC2)CC1)c1cnc2ccccc2c1)c1ccc2c(Cl)c[nH]c2c1` (stereo not drawn), the K ass was 200000 l M-1.

In the case of `COc1ccc(C(=O)NC(C(=O)NCC2CCN(C(C)C)CC2)c2ccccc2OCc2ccccc2)cc1` (stereo not drawn), the K ass is 2.6e+06 l M-1.

For `CCOc1ccccc1C(NC(=O)c1ccc(OC)cc1)C(=O)NCC1CCN(C(C)C)CC1` (stereo not drawn), the K ass is 2.8e+06 l M-1.

Consider `COc1ccc(C(=O)NC(C(=O)NCC2CCN(C(C)C)CC2)c2ccccc2OC(F)(F)F)cc1` (stereo not drawn), for which the K ass was 4.1e+06 l M-1.

On to `COc1ccc(C(=O)NC(C(=O)NCC2CCN(C(C)C)CC2)c2ncc[nH]2)cc1` (stereo not drawn), for which the K ass is 210000 l M-1.

Consider `COc1ccc(C(=O)NC(C(=O)NCC2CCN(C(C)C)CC2)c2ccccc2Oc2ccccc2)cc1` (stereo not drawn), for which the K ass is 1.3e+06 l M-1.

With `COc1ccc(C(=O)NC(C(=O)NCC2CCN(C(C)C)CC2)c2ccccc2C(F)(F)F)cc1` (stereo not drawn), the K ass was 3.1e+06 l M-1.

With `COc1ccc(C(=O)NC(C(=O)NCC2CCN(C(C)C)CC2)c2ccccc2C)cc1` (stereo not drawn), the K ass is 2.5e+06 l M-1.

Regarding `O=C(NC(C(=O)NCC1CCN(C2CCCC2)CC1)c1nccs1)c1ccc2c(Cl)c[nH]c2c1` (stereo not drawn), the K ass is 3.8e+08 l M-1.

As for `COc1ccc(C(=O)NC(C(=O)NCC2CCN(C(C)C)CC2)c2ccsc2)cc1` (stereo not drawn), the K ass was 880000 l M-1.

Take `O=C(N[C@@H](C(=O)NCC1CCN(C2CCCC2)CC1)c1ccccc1)c1ccc2c(Cl)c[nH]c2c1`: the K ass is 8.2e+08 l M-1.

As for `COc1ccc(C(=O)NC(C(=O)NCC2CCN(C(C)C)CC2)c2ccnc3ccccc23)cc1` (stereo not drawn), the K ass was 1.3e+06 l M-1.

As for `COc1ccc(C(=O)NC(C(=O)NCC2CCN(C(C)C)CC2)c2ccccc2N(C)C)cc1` (stereo not drawn), the K ass was 1.1e+06 l M-1.

In the case of `COc1ccc(C(=O)NC(C(=O)NCC2CCN(C(C)C)CC2)c2ccccc2SC(C)(C)C)cc1` (stereo not drawn), the K ass is 1.7e+06 l M-1.

On to `COc1ccc(C(=O)NC(C(=O)NCC2CCN(C(C)C)CC2)c2ccccc2OC)cc1` (stereo not drawn), for which the K ass was 1.9e+06 l M-1.

`COc1ccc(C(=O)NC(C(=O)NCC2CCN(C(C)C)CC2)c2cccs2)cc1` (stereo not drawn): the K ass was 1.1e+06 l M-1.

As for `COc1ccc(C(=O)NC(C(=O)NCC2CCN(C(C)C)CC2)c2ccccc2I)cc1` (stereo not drawn), the K ass is 4.1e+06 l M-1.

Regarding `COc1ccc(C(=O)NC(C(=O)NCC2CCN(C(C)C)CC2)c2ccco2)cc1` (stereo not drawn), the K ass was 360000 l M-1.
